Laboratory results taken from ChEMBL document CHEMBL5120813, “Polysubstituted Cyclopentene Benzamides and Dianthramide Alkaloids from Delphinium anthriscifolium Hance” (2022).

System: RAW264.7
Test: Antiinflammatory activity in mouse RAW264.7 assessed as inhibition of LPS-induced NO production preincubated for 30 mins followed by LPS stimulation measured after 24 hrs by Griess reagent based assay relative to control
Type: functional
Parameters: concentration or dose not given beside the values
Conditions: 0.5 h

Compared with `COC(=O)c1cc(O)c(O)cc1NC(=O)c1cc(O)ccc1O`, `COC(=O)c1cc(O)c(O)cc1NC(=O)c1cc(O)ccc1OC` is higher in “inhibition (INH)” value: 40.3% for the first, 78.8% for the second.

Compared with `COC(=O)c1c(NC(=O)c2cccc(O)c2OC)ccc(O)c1OC`, `COC(=O)c1cc(O)ccc1NC(=O)c1cccc(O)c1OC` is higher in “inhibition (INH)” value: 43% for the first, 61.2% for the second.

Going from `COC(=O)c1cc(O)c(O)cc1NC(=O)c1ccccc1O` to `O=c1c(O)c(-c2ccc(O)c(O)c2)oc2cc(O)cc(O)c12` [QUERCETIN], the “inhibition (INH)” value falls from 57.6% to 48.6%.
